This assay has as its system NSC-34 cells. Briefly: Evaluation on cell membrane permeability by flow cytometry. The class given is cell-based, mouse. The settings on record: 10 μM additive, 0.5% DMSO, 20 hours incubation at 37° C., fluorescence detector FL2. Here is the method: As the eukaryotic cells, NSC-34 cells (mouse motor neuron-like hybrid cell line) were used and the cell membrane permeability of the constructs 1 to 3 was analyzed. In Examples 1 to 3, the prepared samples 1 to 3 were used, respectively, and in Example 4, a FAM solution was used.
The NSC-34 cells were cultured in 10% fetal bovine serum (FBS)-containing Dulbecco's modified Eagle's medium (DMEM (Cat No. 044-29765, manufactured by FUJIFILM Wako Pure Chemical Corporation)), which is a normal culture medium.
The NSC-34 cells that adhered to a culture plate were cleaned with PBS and then, a 0.25%-trypsin/EDTA solution was added thereto, and incubation was performed for three minutes at 37° C. After the incubation, the aforementioned 10% FBS-containing DMEM was added to deactivate trypsin and then, five-minute centrifugal separation was performed at 150×g to precipitate the cells. After the supernatant generated by the centrifugal separation was removed, the 10% FBS-containing DMEM was added to the precipitate (cell pellet) to prepare a cell suspension of about 2× 10^5 cells/mL. The cell suspension was added by 1 mL to a well of a commercially available six-hole (well) plate (manufactured by AGC TECHNO GLASS Co., Ltd.) so as to seed the cell (about 2× 10^5 cells/well). In addition, the 2 mM sample solution 1 was diluted with the 10% FBS-containing DMEM to prepare the sample solution 1 in which the concentration of the sample 1 was 20 μM. […]
Regarding the obtained cells (cell pellet), the cell membrane permeability of the sample 1 was analyzed using a flow cytometer. […]
Using the aforementioned flow cytometer, gating based on forward scatter (FSC) and side scatter (SSC) was performed to set a gate about a cell group to be analyzed, and the fluorescence intensity was measured about the cell group in this gate. […] The fluorescence intensity was measured using a fluorescence detector FL2 of the flow cytometer (optimum detection wavelength around 543 nm) capable of detecting the fluorescence wavelength of FAM. […]
On the technique in general: In flow cytometry, cells or beads pass a laser one at a time.

Primed or numbered codes have the meaning given here. FAM″ = C-terminal FAM dye

The values that follow come from patent US20260241043A1, “Carrier Peptide Fragment and Use Thereof” (TOAGOSEI CO., LTD., priority 2022, published 2026).

With Ac-rKKrNSKrLTrKK-FAM [Example 2], the “MFI (median fluorescence intensity)” value came out at 37.7. In the case of Ac-RkkRNSkRLTRkk-FAM [Example 3], the “MFI (median fluorescence intensity)” value turned out to be 27.3. For the substance “Ac-RKKRNSKRLTRKK-FAM (Ac-RKKRNSKRLTRKK-{FAM″}) [Example 1, N-terminally acetylated peptide 1 (all L-form) with FAM fluorescent dye bonded to the C-terminus]”, the “MFI (median fluorescence intensity)” value amounted to 14.6.
